Legend:
Aorta [1] = assay: Vasorelaxant activity against norepinephrine-induced contraction in Wistar rat thoracic aorta at 10 uM; type: functional; set-up: scale not given: the % may be the effect or the level left
Aorta [2] = assay: Vasorelaxant activity against norepinephrine-induced contraction in Wistar rat thoracic aorta at 100 uM; type: functional; set-up: scale not given: the % may be the effect or the level left

`COC(=O)[C@@H]1C[C@]23C4=NC[C@@H](C)[C@]45CC[C@@]2(COC(C)=O)[C@H](CCC2=C3[C@@H]1CC2)[C@H]5O` [DAPHMANIDIN A] showed an Activity (Aorta [1]) of 37.5%.

Work on `COC(=O)C1=C2CCC3=C2[C@@]2(C1)C1=NC[C@@H](C)[C@]14CC[C@@]2(COC(C)=O)[C@H](CC3)[C@H]4O` [DAPHMANIDIN E] yielded an Activity (Aorta [2]) of 34.9%.

Work on `COC(=O)C1=C2CC[C@]34CC[C@@H]5[C@@H](O)[C@@]67CC[C@]5(COC(C)=O)[C@](C1)(C6=NC[C@H]7C)[C@]23O4` [DAPHMANIDIN F] yielded an Activity (Aorta [1]) of 45.8%.
